Target: T1, GAL4-PPARγ chimeric nuclear receptor (human PPARγ ligand binding region) (Homo sapiens, UniProt P37231)
T1 construct: expressed in transfected cells; host or cells: HEK293EBNA cells
T1 sequence (P37231 174-475 isoform P37231-2): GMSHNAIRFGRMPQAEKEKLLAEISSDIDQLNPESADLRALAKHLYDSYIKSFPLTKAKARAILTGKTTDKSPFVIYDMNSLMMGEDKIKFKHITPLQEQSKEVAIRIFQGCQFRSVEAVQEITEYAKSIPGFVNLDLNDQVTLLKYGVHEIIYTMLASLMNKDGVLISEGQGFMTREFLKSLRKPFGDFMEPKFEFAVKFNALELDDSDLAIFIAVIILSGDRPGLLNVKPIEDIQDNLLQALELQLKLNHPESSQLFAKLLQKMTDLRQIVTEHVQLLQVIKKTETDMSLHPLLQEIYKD
Assay: Transactivation assay of PPARγ by transient gene transfer (GAL4-PPARγ luciferase reporter)
Format: cell-based
Conditions: HEK293EBNA cells, 24 hr; concentration showing 50% of efficacy; activity relative to pioglitazone 10 μmol/L = 100%
Description: The agonist activity of compound (I) to PPARγ was determined by a transactivation assay method using a chimeric nuclear receptor of a DNA binding region of a yeast transcription factor GAL4 and a PPARγ ligand binding region. Specifically, the PPARγ agonist activity of compound (I) was evaluated by the following method based on the method of Lehmann et al. (J Biol. Chem., 1995, vol. 270, page 12953).
HEK293EBNA cells cultured in Dulbecco's Modified Eagle medium (Invitrogen) containing 10 v/v % fetal calf serum (Invitrogen) were used. 30 mL of the above-mentioned cells (density: 1×10^5 cells/mL) were inoculated in a […] culture dish (Iwaki Glass), and cultured overnight. Using SuperFect Transfection Reagent (QIAGEN), a plasmid expressing a GAL4-PPARγ chimeric nuclear receptor fusing 174-475 amino acids, which are human PPARγ ligand binding region, and 1-147 amino acids, which are GAL4 DNA binding region, and a reporter plasmid expressing a GAL4 responsive luciferase were transiently introduced into the cells at a proportion of 4:1. After 5 hr from gene introduction, the cells were detached from the culture dish, and the detached cells (density: 2×10^4 cells/mL) were inoculated by 100 μL in each well of a 96 well white plate (SUMITOMO BAKELITE), and cultured overnight. The medium was removed, compound (I) diluted in various concentrations with serum-free Dulbecco's Modified Eagle medium was added by 100 μL, and the mixture was reacted under a 5% carbon dioxide gas stream (5% CO2) at 37° C. for 24 hr. On the other hand, as a positive control, 10 μmol/L of pioglitazone (100 μL) was added, and the mixture was reacted under a 5% carbon dioxide gas stream (5% CO2) at 37° C. for 24 hr. As a substrate of luciferase, 100 μL of Steady-Glo (Promega) was added to each well and the mixture was thoroughly stirred. Immediately thereafter, the chemical luminescence due to luciferase was measured using TopCount NTX (Packard).
The agonist activity (activity rate (%)) of compound (I) to PPARγ was calculated according to the following formula, as a relative activity when the agonist activity on addition of pioglitazone (10 μmol/L) was 100%.

SMILES | EC50
CCCc1nc2c(C)cccc2n1Cc1ccc2c(c1)CCc1ccccc1N2C(C)c1noc(=O)[nH]1 (centres unmarked) [Compound 18, 2-(4-methyl-2-propylbenzimidazol-1-yl)methyl-5-[1-(5-oxo-4,5-dihydro-1,2,4-oxadiazol-3-yl)ethyl]-10,11-dihydro-5H-dibenzo[b,f]azepine] | 0.048 µM
C/C(=C1/c2ccccc2COc2cc(Cn3c(C4CC4)nc4c(C)cc(C)nc43)ccc21)c1noc(=O)[nH]1 [Compound 112, (E)-3-(2-cyclopropyl-5,7-dimethyl-3H-imidazo[4,5-b]pyridin-3-yl)methyl-11-[1-(5-oxo-4,5-dihydro-1,2,4-oxadiazol-3-yl)ethylidene]-6,11-dihydrodibenzo[b,e]oxepine] | 1.13 µM
CCCc1nc2c(C)cccc2n1Cc1ccc2c(c1)CCc1ccccc1/C2=C(/C)c1noc(=O)[nH]1 [Compound 83, (E)-2-(4-methyl-2-propylbenzimidazol-1-yl)methyl-5-[1-(5-oxo-4,5-dihydro-1,2,4-oxadiazol-3-yl)ethylidene]-10,11-dihydro-5H-dibenzo[a,d]cycloheptene] | 0.342 µM
CCc1nc2c(C)cc(C)nc2n1Cc1ccc2c(c1)CCc1ccccc1/C2=C/c1nnn[nH]1 [Compound S17, (Z)-2-(2-ethyl-5,7-dimethyl-3H-imidazo[4,5-b]pyridin-3-yl)methyl-5-(1H-tetrazol-5-yl)methylene-10,11-dihydro-5H-dibenzo[a,d]cycloheptene] | 1.29 µM
CCc1nc2c(C)cc(C)nc2n1Cc1ccc2c(c1)CCc1ccccc1/C2=C(\C)c1nn[nH]n1 [Compound 62, (Z)-2-(2-ethyl-5,7-dimethyl-3H-imidazo[4,5-b]pyridin-3-yl)methyl-5-[1-(1H-tetrazol-5-yl)ethylidene]-10,11-dihydro-5H-dibenzo[a,d]cycloheptene] | 0.251 µM
CCCc1nc2c(C(F)(F)F)cc(C)nc2n1Cc1ccc2c(c1)CCc1ccccc1/C2=C/c1noc(=O)[nH]1 [Compound 57, (Z)-2-(5-methyl-2-propyl-7-trifluoromethyl-3H-imidazo[4,5-b]pyridin-3-yl)methyl-5-(5-oxo-4,5-dihydro-1,2,4-oxadiazol-3-yl)methylene-10,11-dihydro-5H-dibenzo[a,d]cycloheptene] | 0.44 µM
CCc1nc2c(C(F)(F)F)cc(C)nc2n1Cc1ccc2c(c1)CCc1ccccc1/C2=C\c1noc(=O)[nH]1 [Compound 37, (E)-2-(2-ethyl-5-methyl-7-trifluoromethyl-3H-imidazo[4,5-b]pyridin-3-yl)methyl-5-(5-oxo-4,5-dihydro-1,2,4-oxadiazol-3-yl)methylene-10,11-dihydro-5H-dibenzo[a,d]cycloheptene] | 0.415 µM
Cc1cc(C)c2nc(C3CC3)n(Cc3ccc4c(c3)CCc3ccccc3N4Cc3nnn[nH]3)c2n1 [Compound S14, 2-(2-cyclopropyl-5,7-dimethyl-3H-imidazo[4,5-b]pyridin-3-yl)methyl-5-(1H-tetrazol-5-yl)methyl-10,11-dihydro-5H-dibenzo[b,f]azepine] | 4.13 µM
CCCc1nc2c(C)cccc2n1Cc1ccc2c(c1)CCc1ccccc1/C2=C/c1noc(=O)[nH]1 [Compound 51, (Z)-2-(4-methyl-2-propylbenzimidazol-1-yl)methyl-5-(5-oxo-4,5-dihydro-1,2,4-oxadiazol-3-yl)methylene-10,11-dihydro-5H-dibenzo[a,d]cycloheptene] | 0.094 µM
CCCc1nc2c(C)cccc2n1Cc1ccc2c(c1)CCc1ccccc1C2Cc1noc(=O)[nH]1 (centres unmarked) [Compound 64, 2-(4-methyl-2-propylbenzimidazol-1-yl)methyl-5-(5-oxo-4,5-dihydro-1,2,4-oxadiazol-3-yl)methyl-10,11-dihydro-5H-dibenzo[a,d]cycloheptene] | 0.073 µM
CCCc1nc(CC)c(C(=O)OCC)n1Cc1ccc2c(c1)CCc1ccccc1N2C(C)c1nnn[nH]1 (centres unmarked) [Compound 28, 2-(5-ethoxycarbonyl-4-ethyl-2-propyl-1H-imidazol-1-yl)methyl-5-[1-(1H-tetrazol-5-yl)ethyl]-10,11-dihydro-5H-dibenzo[b,f]azepine] | 0.325 µM
